Measured values: US12398125B2, “Nitrogen-containing saturated heterocyclyl derivative” (Sumitomo Pharma Co., Ltd., priority 2022, dated 2025)

Columns and labels:
Assay type in all cases: cell-based
[1] = tested on: α-synuclein aggregate in dopamine neurospheroid prepared from human iPS cells with a mutation in GBA1 gene; assay: Test 11: reducing the accumulation of α-synuclein aggregate with dopamine neurospheroid; settings: DMSO = 100%, compound added day 40, measured day 44, GBA1 mutant
Experimental: Test 11: Evaluation of Reducing the Accumulation of α-Synuclein Aggregate with Dopamine Neurospheroid Prepared from Human iPS Cells with a Mutation in GBA1 Gene
(§1) (1) Induction of Differentiation from Human iPS Cell to Neural Cell
(§2) Dopaminergic progenitor cells were induced from GBA1 gene mutant iPS cells with dopaminergic neuron differentiation kit (Thermo Fisher Scientific Inc., cat #A3147701). Dopamine neurospheroid was prepared from the induced dopaminergic progenitor cells by three-dimensional culture system, and preserved with BrainPhys Neuronal Medium (STEMCELL Technologies, cat #ST-05793) comprising NeuroCult SM1 Neuronal Supplement, N2 Supplement-A, 20 ng/mL BDNF, 20 ng/mL GDNF, 1 mM dibutyryl cAMP, and 200 nM ascorbic acid. Half of the culture medium was replaced every 3 or 4 days.
The test compound was diluted with the culture medium so as to be twice the final concentration, and an equal volume of the twice-concentrated solution was added to each well when half of the culture medium was replaced on day 40 after induction of differentiation.
(§3) (2) Evaluation of the Amount of α-Synuclein Aggregate
(§4) From the dopamine neurospheroid 44 days after the induction of differentiation, proteins were extracted with a TBS solution containing 1% TritionX-100, and the extracted proteins were subjected to a protein analysis with Simple Western system (Protein Simple, Inc., cat #SM-W008) using an α-synuclein antibody (Thermo Fisher Scientific Inc., cat #AHB0261) to measure the amount of the α-synuclein aggregate.
(§5) The amount of the aggregate in the neurospheroid added with each test compound was measured. Assuming that the amount of the aggregate in the neurospheroid added with a DMSO solution is 100%, the amount of the aggregate in the test samples was evaluated.

[2] = tested on: α-synuclein aggregate in neurospheroid prepared from human iPS cells with a mutation in PLA2G6 gene; assay: Test 3: reducing the accumulation of α-synuclein aggregate with neurospheroid; settings: 120 h, DMSO = 100%, compound added day 10, measured day 15 after induction of differentiation; for activity at 0.1 µM: 100 nM, read-out: Amount of aggregate (%) 100 nM; for activity at 1 µM: 1000 nM, read-out: Amount of aggregate (%) 1000 nM
Experimental: Test 3: Evaluation of Reducing the Accumulation of α-Synuclein Aggregate with Neurospheroid Prepared from Human iPS Cells with a Mutation in PLA2G6 Gene (1) Induction of Differentiation from Human iPS Cell to Neural Cell
as §2, with “Neural stem” for “Dopaminergic progenitor”, “PLA2G6” for “GBA1”, “PSC Neuronal Induction Medium” for “dopaminergic neuron differentiation kit”, “#A1647801). Neurospheroid” for “#A3147701). Dopamine neurospheroid”, “neural stem” for “dopaminergic progenitor”, “days after the induction of differentiation.” for “days.”
The test compound was diluted with the culture medium so as to be twice the final concentration, and an equal volume of the twice-concentrated solution was added to each well when half of the culture medium was replaced on day 10 after induction of differentiation.
as §3
as §4, with “the” for “the dopamine”, “15” for “44”
as §5

[3] = tested on: α-synuclein aggregate in neurospheroid prepared from human iPS cells with a mutation in PLA2G6 gene; assay: Test 2: suppressing the accumulation of α-synuclein aggregate with neurospheroid; settings: 120 h, DMSO = 100%, compound added day 4, measured day 9 after induction of differentiation; for activity at 0.1 µM: 100 nM, read-out: Amount of aggregate (%) 100 nM; for activity at 1 µM: 1000 nM, read-out: Amount of aggregate (%) 1000 nM
Experimental: Test 2: Evaluation of Suppressing the Accumulation of α-Synuclein Aggregate with Neurospheroid Prepared from Human iPS Cells with a Mutation in PLA2G6 Gene
as §1
Neural stem cells were induced from PLA2G6 gene mutant iPS cells with PSC Neuronal Induction Medium (Thermo Fisher Scientific Inc., cat #A1647801). Neurospheroid was prepared from the induced neural stem cells by three-dimensional culture system, and preserved with BrainPhys Neuronal Medium (STEMCELL Technologies, cat #ST-05793) comprising NeuroCult SM1 Neuronal Supplement, N2 Supplement-A, 20 ng/mL BDNF, 20 ng/mL GDNF, 1 mM dibutyryl cAMP, and 200 nM ascorbic acid. Half of the culture medium was replaced on day 2 and day 4 after the induction of differentiation.
The test compound was diluted with the culture medium so as to be twice the final concentration, and an equal volume of the twice-concentrated solution was added to each well when half of the culture medium was replaced on day 4 after induction of differentiation.
as §3
as §4, with “the” for “the dopamine”, “9” for “44”
Assuming that the amount of the aggregate in the neurospheroid added with a DMSO solution is 100%, the amount of the aggregate in the neurospheroid added with each test compound was evaluated.

[4] = tested on: α-synuclein aggregate in dopamine neurospheroid prepared from human iPS cells with a mutation in PLA2G6 gene; assay: Test 5: suppressing the accumulation of α-synuclein aggregate with dopamine neurospheroid; settings: 120 h, DMSO = 100%, compound added day 21, measured day 26, PLA2G6 mutant; for activity at 0.1 µM: 100 nM, read-out: Amount of aggregate (%) 100 nM; for activity at 1 µM: 1000 nM, read-out: Amount of aggregate (%) 1000 nM
Experimental: Test 5: Evaluation of Suppressing the Accumulation of α-Synuclein Aggregate with Dopamine Neurospheroid Prepared from Human iPS Cells with a Mutation in PLA2G6 Gene
as §1
as §2, with “PLA2G6” for “GBA1”, “days after the induction of differentiation.” for “days.”
The test compound was diluted with the culture medium so as to be twice the final concentration, and an equal volume of the twice-concentrated solution was added to each well when half of the culture medium was replaced on day 21 after induction of differentiation.
as §3
as §4, with “26” for “44”
as §5

Row | SMILES | Amount of aggregate (%) 100 nM [1] | Amount of aggregate (%) 1000 nM [1] | activity at 0.1 µM [2] | activity at 1 µM [2] | activity at 0.1 µM [3] | activity at 1 µM [3] | activity at 0.1 µM [4] | activity at 1 µM [4]
1 | CC1(C(=O)N2CCC(c3ccc(C(F)(F)F)nc3)CC2)COC1 [Example 1, (3-Methyloxetan-3-yl){4-[6-(trifluoromethyl)pyridin-3-yl]piperidin-1-yl}methanone] | 23% | 14% | 20% | 30% | 14% | 16% | 17% | 21%
2 | CC1(C(=O)N2CCC(c3cncc(C(F)(F)F)c3)CC2)COC1 [Example 2, (3-methyloxetan-3-yl){4-[5-(trifluoromethyl)pyridin-3-yl]piperidin-1-yl}methanone] | 21% | 20% | 20% | 17% | 9% | 1% | 16% | 7%
3 | CCC1(C(=O)N2CCC(c3ccc(C(F)(F)F)nc3)CC2)COC1 [Example 5] | – | – | 22% | 70% | 22% | 90% | 14% | 18%
4 | CC1(C(=O)N2CCC(c3ccc(C(F)(F)F)cn3)CC2)COC1 [Example 9] | – | – | 10% | 20% | 8% | 50% | 18% | 23%
5 | CC1(C(=O)N2CCC(c3cnc(C(F)(F)F)c(F)c3)CC2)COC1 [Example 29, {4-[5-fluoro-6-(trifluoromethyl)pyridin-3-yl]piperidin-1-yl}(3-methyloxetan-3-yl)methanone] | – | – | 42% | 60% | 24% | 14% | 9% | 8%
6 | CCC1(C(=O)N2CCC(c3cnc(C(F)(F)F)cc3C)CC2)COC1 [Example 32] | – | – | 29% | 96% | 18% | 5% | 3% | 0%
7 | CC1(C(=O)N2CCC(c3cnccc3C(F)(F)F)CC2)CNC1 [Example 35] | – | – | 16% | 19% | 28% | 28% | 27% | 38%
8 | CN1CC(C)(C(=O)N2CCC(c3cccnc3C(F)(F)F)CC2)C1 [Example 42, (1,3-dimethylazetidin-3-yl){4-[2-(trifluoromethyl)pyridin-3-yl]piperidin-1-yl}methanone] | 18% | 8% | 28% | 45% | 27% | 9% | 17% | 11%
9 | CN1CC(C)(C(=O)N2CCC(c3cncc(C(F)(F)F)c3)CC2)C1 [Example 44, (1,3-dimethylazetidin-3-yl){4-[5-(trifluoromethyl)pyridin-3-yl]piperidin-1-yl}methanone] | 20% | 24% | 15% | 16% | 20% | 0% | 18% | 26%
10 | CN1CC(C)(C(=O)N2CCC(c3ccc(C(F)(F)F)cn3)CC2)C1 [Example 45] | – | – | 46% | 76% | 9% | 4% | 17% | 8%
11 | CC1(C(=O)N2CCC(c3cccnc3C(F)(F)F)CC2)CN(CC(F)(F)F)C1 [Example 66, [3-Methyl-1-(2,2,2-trifluoroethyl)azetidin-3-yl]{4-[2-(trifluoromethyl)pyridin-3-yl]piperidin-1-yl}methanone] | – | – | – | – | 30% | 77% | – | –
12 | CC1(C(=O)N2CCC(c3cccnc3C(F)(F)F)CC2)CN(C2CC2)C1 [Example 67, (1-Cyclopropyl-3-methylazetidin-3-yl){4-[2-(trifluoromethyl)pyridin-3-yl]piperidin-1-yl}methanone] | – | – | – | – | 82% | 64% | – | –
